For one compound, Ki results are on record in BindingDB's records for PubMed 40258217 (The Hebrew University of Jerusalem).

For this experiment, the target named is Cannabinoid receptor 1 (Mus musculus, UniProt P47746). The experiment in a line: Displacement of [3H]CP-55940 from CB1R in C57Bl/6Jhsd mouse cortex membrane incubated for 1 hr by liquid scintillation counter analysis.
Sequence of Cannabinoid receptor 1 (P47746 whole entry): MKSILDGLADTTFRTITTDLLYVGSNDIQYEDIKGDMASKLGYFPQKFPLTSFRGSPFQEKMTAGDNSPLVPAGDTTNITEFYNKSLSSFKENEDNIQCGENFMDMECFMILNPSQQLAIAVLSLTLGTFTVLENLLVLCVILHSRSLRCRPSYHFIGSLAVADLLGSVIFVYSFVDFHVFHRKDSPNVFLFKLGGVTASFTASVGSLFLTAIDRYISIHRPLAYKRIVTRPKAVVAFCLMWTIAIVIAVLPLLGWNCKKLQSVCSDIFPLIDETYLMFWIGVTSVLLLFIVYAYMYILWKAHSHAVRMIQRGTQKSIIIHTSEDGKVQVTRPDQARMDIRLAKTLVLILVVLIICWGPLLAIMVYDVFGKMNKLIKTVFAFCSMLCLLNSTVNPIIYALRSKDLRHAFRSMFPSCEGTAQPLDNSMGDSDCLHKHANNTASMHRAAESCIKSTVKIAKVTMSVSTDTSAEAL

On to `CCOC(=O)N1CCC(N[C@H]2CCCOc3c2nn(-c2ccccc2Cl)c3-c2ccc(Cl)cc2)CC1`, for which the Ki – broadly, a measure of affinity in units of concentration, obtained from inhibition or displacement – was found to be 8.9 nM.
